Data published in ChEMBL document CHEMBL5131488, “Design and synthesis of pyrido[2,3-d]pyrimidine derivatives for a novel PAC1 receptor antagonist” (Eur J Med Chem, 2022).
Values after ≈ are worked out from the molar mass of the structure shown. Blank lines part the entries; values can stand above or below the compound they belong to. Active and inactive are the calls of the source. No cut-off for these calls is given here.

Key:
[1] = Half life in C57BL/6J mouse at 30 mg/kg, po measured up to 24 hrs by LC-MS/MS analysis; type: ADME, organism-based; conditions: in vivo
[2] = Metabolic stability in human liver microsomes assessed as parent compound remaining in presence of NADPH at 0.5 uM measured after 10 mins by LC-MS/MS analysis; type: ADME, Microsome; conditions: read-out: Stability
[3] = test system: Mus musculus; assay: Antiallodynic activity in ddY mouse assessed as inhibition of PACAP-evoked mechanical allodynia at 10 to 100 pmol administered via IT as single dose and measured after 14 days; type: functional, organism-based; conditions: dose 10-100 pmol, time 14.0 day
[4] = test system: Mus musculus; assay: Inhibition of PACAP-induced aversive behaviour in it dosed ddY mouse administered as single dose and measured for 30 mins; type: functional, organism-based; conditions: dose 10-100 pmol, DDE = dose-dependent effect
[5] = target: T1, Pituitary adenylate cyclase-activating polypeptide type I receptor (Homo sapiens, UniProt P41586); assay: Antagonist activity at PAC-1 receptor (unknown origin) expressed in CHO cells assessed as inhibition of PACAP-induced CREB phosphorylation at 1 nM pretreated for 30 mins followed by PACAP stimulation for 30 mins by western blot analysis; type: cell-based; conditions: filed as antagonist, time 60.0 min
Target sequence in this assay (P41586 21-468 limits assumed): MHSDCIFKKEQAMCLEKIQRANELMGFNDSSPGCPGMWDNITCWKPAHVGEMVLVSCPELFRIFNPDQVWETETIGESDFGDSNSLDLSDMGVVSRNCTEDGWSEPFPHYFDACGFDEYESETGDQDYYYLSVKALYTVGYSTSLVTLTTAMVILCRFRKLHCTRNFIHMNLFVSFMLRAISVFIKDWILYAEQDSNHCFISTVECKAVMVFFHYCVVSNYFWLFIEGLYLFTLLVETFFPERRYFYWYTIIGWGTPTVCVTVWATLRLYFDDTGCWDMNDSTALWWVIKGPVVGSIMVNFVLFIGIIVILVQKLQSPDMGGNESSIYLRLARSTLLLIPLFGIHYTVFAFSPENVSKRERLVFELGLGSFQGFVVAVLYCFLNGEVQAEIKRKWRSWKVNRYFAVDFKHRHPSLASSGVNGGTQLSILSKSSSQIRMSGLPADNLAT

[6] = Aqueous solubility of the compound in phosphate buffered saline at 100 uM at pH 7.4 by HPLC analysis; type: physicochemical
[7] = Tmax in C57BL/6J mouse at 30 mg/kg, po measured up to 24 hrs by LC-MS/MS analysis; type: ADME, organism-based; conditions: in vivo
[8] = Half life in C57BL/6J mouse at 30 mg/kg, ip measured up to 24 hrs by LC-MS/MS analysis; type: ADME, organism-based; conditions: in vivo
[9] = Plasma protein binding in human measured after 5 hrs by LC-MS/MS analysis; type: ADME, cell-free; conditions: read-out: PPB (converted)
[10] = Metabolic stability in mouse liver microsomes assessed as parent compound remaining in presence of NADPH at 0.5 uM measured after 60 mins by LC-MS/MS analysis; type: ADME, Microsome; conditions: read-out: Stability
[11] = Cmax in C57BL/6J mouse at 30 mg/kg, ip measured up to 24 hrs by LC-MS/MS analysis; type: ADME, organism-based; design: time < 24 hrs, dose 30 mg/kg, route ip; conditions: in vivo
[12] = Permeability of the compound across apical to basolateral side in human Caco-2 cells at 25 uM incubated for 2 hrs by LC/MS/MS analysis; type: ADME, cell-based; conditions: read-out: permeability
[13] = Metabolic stability in human liver microsomes assessed as parent compound remaining in presence of NADPH at 0.5 uM measured after 60 mins by LC-MS/MS analysis; type: ADME, Microsome; conditions: read-out: Stability
[14] = Tmax in C57BL/6J mouse at 30 mg/kg, ip measured up to 24 hrs by LC-MS/MS analysis; type: ADME, organism-based; conditions: in vivo
[15] = Cmax in C57BL/6J mouse at 30 mg/kg, po measured up to 24 hrs by LC-MS/MS analysis; type: ADME, organism-based; design: dose 30 mg/kg, time < 24 hrs, route po; conditions: in vivo
[16] = Plasma protein binding in mouse measured after 5 hrs by LC-MS/MS analysis; type: ADME, cell-free; conditions: read-out: PPB (converted)
[17] = Metabolic stability in mouse liver microsomes assessed as parent compound remaining in presence of NADPH at 0.5 uM measured after 10 mins by LC-MS/MS analysis; type: ADME, Microsome; conditions: read-out: Stability
[18] = test system: Mus musculus; assay: Antiallodynic activity in ddY mouse assessed as inhibition of spinal nerve ligation-evoked mechanical allodynia at 10 pmol administered via IT as single dose and measured after 3 hrs; type: functional, organism-based
[19] = target: T1, Pituitary adenylate cyclase-activating polypeptide type I receptor; assay: Antagonist activity at PAC-1 receptor (unknown origin) expressed in CHO cells assessed as inhibition of PACAP-induced increase in intracellular cAMP level pretreated for 30 mins followed by PACAP stimulation measured after 1 hr by cAMP-Glo assay; type: cell-based; conditions: for Activity: filed as antagonist, time 90.0 min, DDE = dose-dependent effect
[20] = test system: Mus musculus; assay: Antiallodynic activity in ddY mouse assessed as inhibition of SNL-induced mechanical allodynia at 30 mg/kg, ip administered once daily for 7 days and measured at 1 hr post-last dosage; type: functional, organism-based; conditions: time 7.0 day
[21] = test system: Mus musculus; assay: Antiallodynic activity in ddY mouse assessed as inhibition of SNL-induced mechanical allodynia at 30 mg/kg, ip administered once daily for 7 days and measured for 3 days after termination of repetitive drug administration; type: functional, organism-based; conditions: time 7.0 day
[22] = test system: Mus musculus; assay: Antiallodynic activity in ddY mouse assessed as inhibition of spinal nerve ligation-evoked mechanical allodynia at 10 pmol administered via IT as single dose and measured after 2 to 4 hrs; type: functional, organism-based; conditions: time 2-4 hrs

half-life [1]: 1.32 h
remaining at 10 min, 0.5 µM [2]: 93%
Activity [5]: Active
solubility at 100 µM [6]: 27.9 µM (≈ 8.38 µg/mL)
Tmax [7]: 0.25 h
half-life [8]: 2.29 h
fraction unbound at 5 h [9]: 0.345
remaining at 1 h, 0.5 µM [10]: 84%
Cmax [11]: 29.3 µM
Papp A→B at 2 h, 25 µM [12]: 0.3 ×10⁻⁶ cm/s
remaining at 1 h, 0.5 µM [13]: 93%
Tmax [14]: 0.25 h
Cmax [15]: 1.93 µM
fraction unbound at 5 h [16]: 0.474
remaining at 10 min, 0.5 µM [17]: 92%
Compound: CCOc1cccc(C2CC(=O)Nc3nc(N)[nH]c(=O)c32)c1 (centres undefined)
Activity [3]: Active
inhibition [4]: Dde

Activity [5]: Active
Compound: CCc1cccc(C2CC(=O)Nc3nc(N)[nH]c(=O)c32)c1 (centres undefined)

Activity [5]: Active
Compound: CCCCc1cccc(C2CC(=O)Nc3nc(N)[nH]c(=O)c32)c1 (centres undefined)

Activity [5]: Active
Compound: CCOc1ccc(C2CC(=O)Nc3nc(N)[nH]c(=O)c32)cc1Br (centres undefined)

Activity [5]: Active
Compound: Nc1nc2c(c(=O)[nH]1)C(c1cccc(Br)c1)CC(=O)N2 (centres undefined)

Activity [5]: Active
Compound: CCCc1cccc(C2CC(=O)Nc3nc(N)[nH]c(=O)c32)c1 (centres undefined)

Activity [5]: Active
Compound: C=CCOc1cccc(C2CC(=O)Nc3nc(N)[nH]c(=O)c32)c1 (centres undefined)

Activity [5]: Active
Compound: CCCOc1ccc(C2CC(=O)Nc3nc(N)[nH]c(=O)c32)cc1OC (centres undefined)

Activity [5]: Active
Compound: CCOc1ccc(C2CC(=O)Nc3nc(N)[nH]c(=O)c32)cc1OCC (centres undefined)

Activity [5]: Active
Compound: CCCOc1cccc(C2CC(=O)Nc3nc(N)[nH]c(=O)c32)c1 (centres undefined)

half-life [1]: 2.75 h
remaining at 10 min, 0.5 µM [2]: 95%
IC50 [19]: 0.11 nM
Activity [19]: Dde
Activity [5]: Active
solubility at 100 µM [6]: 93.3 µM (≈ 31.7 µg/mL)
Tmax [7]: 0.83 h
half-life [8]: 2.4 h
fraction unbound at 5 h [9]: 0.11
remaining at 1 h, 0.5 µM [10]: 93%
Cmax [11]: 40.6 µM
Papp A→B at 2 h, 25 µM [12]: 1.6 ×10⁻⁶ cm/s
remaining at 1 h, 0.5 µM [13]: 92%
Tmax [14]: 1 h
Cmax [15]: 20.8 µM
fraction unbound at 5 h [16]: 0.298
remaining at 10 min, 0.5 µM [17]: 91%
Compound: Nc1nc2c(c(=O)[nH]1)C(c1cccc(OC(F)(F)F)c1)CC(=O)N2 (centres undefined)
Activity [18]: Active
Activity [3]: Active
inhibition [4]: Dde
Activity [20]: Active
Activity [21]: Active
Activity [22]: Active

Activity [5]: Active
Compound: CCOc1cc(C2CC(=O)Nc3nc(N)[nH]c(=O)c32)ccc1OC (centres undefined)

Activity [5]: Active
Compound: Nc1nc2c(c(=O)[nH]1)C(c1ccc(F)c(F)c1)CC(=O)N2 (centres undefined)

Activity [5]: Active
Compound: Nc1nc2c(c(=O)[nH]1)C(c1cccc(Cl)c1)CC(=O)N2 (centres undefined)

Activity [5]: Active
Compound: CCCOc1cc(C2CC(=O)Nc3nc(N)[nH]c(=O)c32)ccc1OC (centres undefined)

Activity [5]: Active
Compound: CCOc1ccc(C2CC(=O)Nc3nc(N)[nH]c(=O)c32)cc1C (centres undefined)

Activity [5]: Active
Compound: CCOc1ccc(C2CC(=O)Nc3nc(N)[nH]c(=O)c32)cc1Cl (centres undefined)

half-life [1]: 1.72 h
remaining at 10 min, 0.5 µM [2]: 93%
IC50 [19]: 1.48 nM
Activity [19]: Dde
Activity [5]: Active
solubility at 100 µM [6]: 92.2 µM (≈ 31.6 µg/mL)
Tmax [7]: 0.5 h
half-life [8]: 2.19 h
fraction unbound at 5 h [9]: 0.304
remaining at 1 h, 0.5 µM [10]: 94%
Cmax [11]: 14.3 µM
Papp A→B at 2 h, 25 µM [12]: 0.3 ×10⁻⁶ cm/s
remaining at 1 h, 0.5 µM [13]: 91%
Tmax [14]: 0.67 h
Cmax [15]: 0.79 µM
fraction unbound at 5 h [16]: 0.505
remaining at 10 min, 0.5 µM [17]: 96%
Compound: C=CCOc1ccc(C2CC(=O)Nc3nc(N)[nH]c(=O)c32)cc1OC (centres undefined)
Activity [18]: Active
Activity [3]: Active
inhibition [4]: Dde
Activity [20]: Active
Activity [22]: Active

Activity [5]: Active
Compound: CCOc1ccc(C2CC(=O)Nc3nc(N)[nH]c(=O)c32)cc1OC (centres undefined)

Activity [5]: Active
Compound: COc1cccc(C2CC(=O)Nc3nc(N)[nH]c(=O)c32)c1 (centres undefined)
